Among the data in patent US20090311217A1, “3-SUBSTITUTED-1H-INDOLE COMPOUNDS, THEIR USE AS MTOR KINASE AND PI3 KINASE INHIBITORS, AND THEIR SYNTHESES” (priority 2008, published 2009) are IC50 values, retold here.

Read-outs that look alike come from different tables or passages of the source.

The term IC50 denotes the concentration that inhibits the measured activity by half.

Common to all, as to assay type: biochemical
Assay [1] concerns the target PI3K-alpha (Homo sapiens, UniProt P42336). Nature of the assay: PI3K-alpha fluorescence polarization assay. In general terms: In fluorescence polarisation assays a small probe gives low polarisation when free and higher when bound to something large.
The target of assay [2] is PI3K-beta (Homo sapiens, UniProt P42338). Nature of the assay: PI3K-beta fluorescence polarization assay. The conditions noted are these: read-out: PI3Kβ Avg. IC50. In short, it runs like this:
(§1)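 FP competition read-out: PIP3 produced displaces BODIPY-TMR-IP4 (5 nM) from GST-GRP1 PH domain (100 nM). Kinase step: 5 ng enzyme, 2.5 μM diC8-PIP2, 25 μM ATP, pH 7 HEPES/MgCl2, 1 h, 25° C; EDTA stop.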

Assay [3] deals with PI3K-gamma (Homo sapiens, UniProt P48736). Nature of the assay: PI3K-gamma fluorescence polarization assay. Conditions: PI3Kγ Avg. IC50. In outline:
as §1

For assay [4], the target named is PI3K-delta (Homo sapiens, UniProt O00329). Nature of the assay: PI3K-delta fluorescence polarization assay.
In assay [5] the target is T1, human TOR (Homo sapiens, UniProt P42345).
T1 construct: FLAG
Nature of the assay: mTOR enzyme assay (DELFIA, His6-S6K substrate). The conditions noted are these: read-out: mTOR Kinase Avg. IC50.

Sequence of PI3K-alpha (P42336 whole entry, species assumed): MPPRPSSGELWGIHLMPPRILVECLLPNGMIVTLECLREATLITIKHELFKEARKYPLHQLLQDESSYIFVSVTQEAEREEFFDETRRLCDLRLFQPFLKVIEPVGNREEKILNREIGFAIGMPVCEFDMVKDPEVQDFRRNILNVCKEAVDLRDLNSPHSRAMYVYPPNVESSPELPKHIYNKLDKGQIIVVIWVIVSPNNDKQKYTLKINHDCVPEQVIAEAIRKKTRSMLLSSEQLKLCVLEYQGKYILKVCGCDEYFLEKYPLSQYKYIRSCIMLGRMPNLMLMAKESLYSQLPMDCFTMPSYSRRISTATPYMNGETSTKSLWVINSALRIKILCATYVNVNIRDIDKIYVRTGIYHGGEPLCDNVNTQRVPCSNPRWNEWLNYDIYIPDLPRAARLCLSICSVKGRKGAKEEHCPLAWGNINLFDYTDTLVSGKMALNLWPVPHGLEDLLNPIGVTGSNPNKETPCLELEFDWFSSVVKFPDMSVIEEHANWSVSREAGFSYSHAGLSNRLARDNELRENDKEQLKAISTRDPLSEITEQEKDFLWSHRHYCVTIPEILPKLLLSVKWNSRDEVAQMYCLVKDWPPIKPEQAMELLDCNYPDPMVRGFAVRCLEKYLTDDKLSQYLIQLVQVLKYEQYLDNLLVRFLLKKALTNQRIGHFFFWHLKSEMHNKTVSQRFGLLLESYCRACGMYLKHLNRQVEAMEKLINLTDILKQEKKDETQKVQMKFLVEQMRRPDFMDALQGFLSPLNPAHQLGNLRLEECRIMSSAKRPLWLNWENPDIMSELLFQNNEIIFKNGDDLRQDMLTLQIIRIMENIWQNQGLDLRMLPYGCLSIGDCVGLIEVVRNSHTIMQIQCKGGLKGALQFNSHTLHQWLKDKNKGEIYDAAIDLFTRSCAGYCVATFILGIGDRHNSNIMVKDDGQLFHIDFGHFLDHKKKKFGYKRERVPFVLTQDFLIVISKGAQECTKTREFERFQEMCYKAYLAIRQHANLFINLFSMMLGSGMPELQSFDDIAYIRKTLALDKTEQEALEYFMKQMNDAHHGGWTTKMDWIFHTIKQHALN
Sequence of PI3K-alpha (P27986 whole entry partner, species assumed): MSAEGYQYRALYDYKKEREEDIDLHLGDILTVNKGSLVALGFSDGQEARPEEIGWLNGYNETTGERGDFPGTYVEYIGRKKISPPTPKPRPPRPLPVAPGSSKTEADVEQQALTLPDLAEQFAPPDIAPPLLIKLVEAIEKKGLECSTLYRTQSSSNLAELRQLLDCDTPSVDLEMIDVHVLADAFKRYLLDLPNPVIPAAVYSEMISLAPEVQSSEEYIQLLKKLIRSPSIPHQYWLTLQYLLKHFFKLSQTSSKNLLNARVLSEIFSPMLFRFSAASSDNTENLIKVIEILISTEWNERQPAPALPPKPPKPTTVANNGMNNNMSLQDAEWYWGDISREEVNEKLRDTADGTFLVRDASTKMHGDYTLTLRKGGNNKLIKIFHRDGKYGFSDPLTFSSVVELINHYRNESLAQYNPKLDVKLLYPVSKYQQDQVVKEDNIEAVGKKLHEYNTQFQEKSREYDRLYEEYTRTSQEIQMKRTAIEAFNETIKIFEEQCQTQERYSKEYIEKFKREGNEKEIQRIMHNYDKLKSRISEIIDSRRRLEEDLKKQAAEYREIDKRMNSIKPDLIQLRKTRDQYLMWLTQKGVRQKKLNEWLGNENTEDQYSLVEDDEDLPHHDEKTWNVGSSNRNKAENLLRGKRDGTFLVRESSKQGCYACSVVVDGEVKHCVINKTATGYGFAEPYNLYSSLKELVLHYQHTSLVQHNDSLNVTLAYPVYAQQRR
Sequence of PI3K-beta (P42338 whole entry, species assumed, the tested form may be a part): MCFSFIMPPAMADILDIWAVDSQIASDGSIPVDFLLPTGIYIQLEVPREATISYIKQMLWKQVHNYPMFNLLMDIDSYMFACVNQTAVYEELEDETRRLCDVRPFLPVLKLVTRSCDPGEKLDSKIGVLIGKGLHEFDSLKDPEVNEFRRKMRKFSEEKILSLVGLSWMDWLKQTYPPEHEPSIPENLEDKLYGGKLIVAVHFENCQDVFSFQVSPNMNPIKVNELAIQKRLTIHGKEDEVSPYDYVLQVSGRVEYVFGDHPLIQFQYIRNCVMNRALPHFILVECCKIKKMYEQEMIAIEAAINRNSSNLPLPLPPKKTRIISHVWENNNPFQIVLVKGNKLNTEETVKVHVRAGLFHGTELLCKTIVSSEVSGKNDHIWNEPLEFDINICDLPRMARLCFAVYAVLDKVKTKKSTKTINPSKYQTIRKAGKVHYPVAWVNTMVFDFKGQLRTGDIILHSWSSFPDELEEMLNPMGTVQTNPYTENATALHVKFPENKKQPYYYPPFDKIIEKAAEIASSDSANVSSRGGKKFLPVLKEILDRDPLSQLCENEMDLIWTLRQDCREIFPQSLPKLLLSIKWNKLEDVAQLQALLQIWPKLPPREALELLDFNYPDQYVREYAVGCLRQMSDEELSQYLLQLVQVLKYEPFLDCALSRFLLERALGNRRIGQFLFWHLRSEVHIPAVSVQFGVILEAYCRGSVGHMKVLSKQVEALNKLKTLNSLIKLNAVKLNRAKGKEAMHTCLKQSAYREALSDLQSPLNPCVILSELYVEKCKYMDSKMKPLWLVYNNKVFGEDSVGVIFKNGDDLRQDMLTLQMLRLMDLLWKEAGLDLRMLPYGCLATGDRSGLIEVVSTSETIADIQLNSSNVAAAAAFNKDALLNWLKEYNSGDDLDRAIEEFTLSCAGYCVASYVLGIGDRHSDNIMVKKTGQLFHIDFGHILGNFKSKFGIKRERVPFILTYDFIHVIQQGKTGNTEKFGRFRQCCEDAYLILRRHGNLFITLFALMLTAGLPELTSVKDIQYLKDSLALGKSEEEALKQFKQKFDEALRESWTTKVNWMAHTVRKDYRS
Sequence of PI3K-beta (P27986 whole entry partner, species assumed, the tested form may be a part): as the sequence (P27986 whole entry partner, species assumed) above
Sequence of PI3K-delta (O00329 whole entry, species assumed): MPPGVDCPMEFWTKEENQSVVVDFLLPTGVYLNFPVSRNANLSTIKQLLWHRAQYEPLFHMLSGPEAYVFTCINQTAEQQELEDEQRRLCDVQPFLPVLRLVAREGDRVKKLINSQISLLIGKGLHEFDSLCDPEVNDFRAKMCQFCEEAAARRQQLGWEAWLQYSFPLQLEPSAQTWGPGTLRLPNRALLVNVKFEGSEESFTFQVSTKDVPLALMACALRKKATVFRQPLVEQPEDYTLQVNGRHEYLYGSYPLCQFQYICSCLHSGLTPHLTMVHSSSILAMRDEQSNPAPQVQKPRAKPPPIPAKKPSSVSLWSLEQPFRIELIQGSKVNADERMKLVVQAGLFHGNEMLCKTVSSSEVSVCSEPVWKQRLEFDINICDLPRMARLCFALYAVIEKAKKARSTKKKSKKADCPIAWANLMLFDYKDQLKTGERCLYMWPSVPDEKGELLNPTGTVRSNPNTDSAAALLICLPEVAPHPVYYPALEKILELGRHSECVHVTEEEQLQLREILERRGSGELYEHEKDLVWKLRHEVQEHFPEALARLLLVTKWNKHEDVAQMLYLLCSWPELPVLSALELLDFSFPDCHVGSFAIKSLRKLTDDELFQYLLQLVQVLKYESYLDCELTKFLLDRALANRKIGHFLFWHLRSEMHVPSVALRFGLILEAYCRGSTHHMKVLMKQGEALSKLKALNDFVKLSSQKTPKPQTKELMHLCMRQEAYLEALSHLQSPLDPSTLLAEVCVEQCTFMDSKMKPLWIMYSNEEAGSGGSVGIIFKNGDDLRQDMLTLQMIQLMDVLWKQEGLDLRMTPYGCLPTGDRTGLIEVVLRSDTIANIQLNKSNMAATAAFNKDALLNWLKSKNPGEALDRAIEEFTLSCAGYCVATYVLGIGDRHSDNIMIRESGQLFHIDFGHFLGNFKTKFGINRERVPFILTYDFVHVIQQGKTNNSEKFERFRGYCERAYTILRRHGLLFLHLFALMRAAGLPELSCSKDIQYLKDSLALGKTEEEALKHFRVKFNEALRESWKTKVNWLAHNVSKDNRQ
Sequence of PI3K-delta (P27986 whole entry partner, species assumed): as the sequence (P27986 whole entry partner, species assumed) above
Sequence of PI3K-gamma (P48736 whole entry, species assumed): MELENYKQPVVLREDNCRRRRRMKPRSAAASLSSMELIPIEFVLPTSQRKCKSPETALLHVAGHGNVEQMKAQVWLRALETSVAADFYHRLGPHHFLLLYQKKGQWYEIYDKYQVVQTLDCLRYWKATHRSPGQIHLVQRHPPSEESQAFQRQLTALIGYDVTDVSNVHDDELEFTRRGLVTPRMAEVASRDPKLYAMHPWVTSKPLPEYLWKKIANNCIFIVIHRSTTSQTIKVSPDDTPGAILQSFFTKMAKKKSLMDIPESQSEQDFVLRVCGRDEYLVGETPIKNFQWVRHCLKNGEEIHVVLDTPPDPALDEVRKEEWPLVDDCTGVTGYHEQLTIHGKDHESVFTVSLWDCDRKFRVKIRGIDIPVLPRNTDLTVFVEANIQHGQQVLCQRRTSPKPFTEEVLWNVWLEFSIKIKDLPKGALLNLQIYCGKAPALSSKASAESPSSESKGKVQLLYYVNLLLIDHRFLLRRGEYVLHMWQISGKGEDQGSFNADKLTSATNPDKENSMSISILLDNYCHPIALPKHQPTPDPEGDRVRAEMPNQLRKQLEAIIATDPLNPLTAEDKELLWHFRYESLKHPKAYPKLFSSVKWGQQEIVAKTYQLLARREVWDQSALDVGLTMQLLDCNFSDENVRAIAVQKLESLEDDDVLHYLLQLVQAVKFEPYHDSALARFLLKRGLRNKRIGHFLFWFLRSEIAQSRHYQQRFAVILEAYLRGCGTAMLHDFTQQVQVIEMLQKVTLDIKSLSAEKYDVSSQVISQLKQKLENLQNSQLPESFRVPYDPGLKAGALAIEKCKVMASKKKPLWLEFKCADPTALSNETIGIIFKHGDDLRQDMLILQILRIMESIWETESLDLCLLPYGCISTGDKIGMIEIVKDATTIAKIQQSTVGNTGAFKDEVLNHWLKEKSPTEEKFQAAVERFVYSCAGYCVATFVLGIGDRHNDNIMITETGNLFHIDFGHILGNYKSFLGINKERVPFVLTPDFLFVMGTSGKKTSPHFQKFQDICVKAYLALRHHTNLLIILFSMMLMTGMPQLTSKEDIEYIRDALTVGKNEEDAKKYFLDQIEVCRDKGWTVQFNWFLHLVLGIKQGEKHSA

Consider `COc1ccc2c(c1)c(C=C1Oc3cc(O)cc(O)c3C1=O)cn2C` [Example 84, 4,6-dihydroxy-2-[(5-methoxy-1-methyl-1H-indol-3-yl)methylene]-1-benzofuran-3(2H)-one], for which the IC50 in assay [1] (PI3Kα Avg. IC50) amounted to 106 nM; in assay [2], 547 nM; in assay [3] it was 586 nM; in assay [4] it was 110 nM; in assay [5], 65.2 nM.

Take `COc1ccc2c(c1)c(C=C1Oc3cc(O)cc(O)c3C1=O)cn2CCCCN(C)C` [Example 116, 2-({1-[4-(dimethylamino)butyl]-5-methoxy-1H-indol-3-yl}methylene)-4,6-dihydroxy-1-benzofuran-3(2H)-one]: the IC50 in assay [1] (read-out: PI3Kα Avg. IC50) worked out at 37 nM; in assay [2] it was 119 nM; in assay [3], 1340 nM; in assay [4] (read-out: PI3Kδ Avg. IC50), 5 nM; in assay [5] it was 1420 nM.

For `COc1ccc2c(c1)c(/C=C1\Oc3cc(O)cc(O)c3C1=O)c(C)n2CCN1CCC(O)C1` (stereo not shown) [Example 327, (2Z)-4,6-Dihydroxy-2-({1-[2-(3-hydroxypyrrolidin-1-yl)ethyl]-5-methoxy-2-methyl-1H-indol-3-yl}methylene)-1-benzofuran-3(2H)-one], the IC50 is 11 nM in assay [1] (read-out: PI3Kα Avg. IC50); 9.5 nM in assay [2]; 39 nM in assay [3]; 2.5 nM in assay [4] (read-out: PI3Kδ Avg. IC50); less than 30 nM in assay [5].

As to `COc1ccc2c(c1)c(/C=C1\Oc3cc(O)cc(C)c3C1=O)c(C)n2CCN1CCN(C)CC1` [Example 338, (2Z)-6-Hydroxy-2-({5-methoxy-2-methyl-1-[2-(4-methylpiperazin-1-yl)ethyl]-1H-indol-3-yl}methylene)-4-methyl-1-benzofuran-3(2H)-one], the IC50 is 22 nM in assay [1] (read-out: PI3Kα Avg. IC50); 57.7 nM in assay [2]; 666 nM in assay [3]; 3 nM in assay [4] (read-out: PI3Kδ Avg. IC50); more than 160 nM in assay [5].

As for `COc1ccc2[nH]c(-c3ccccc3)c(/C=C3\Oc4cc(O)ccc4C3=O)c2c1` [Example 310, (2Z)-6-Hydroxy-2-[(5-methoxy-2-phenyl-1H-indol-3-yl)methylene]-1-benzofuran-3(2H)-one], the IC50 in assay [1] (read-out: PI3Kα Avg. IC50) is less than 2.1 nM; in assay [2] it was 11.5 nM; in assay [3], 13.5 nM; in assay [4] (read-out: PI3Kδ Avg. IC50) it was 0.9 nM; in assay [5], 92 nM.

For the molecule `COc1ccc2c(c1)c(C=C1Oc3cc(O)cc(O)c3C1=O)c(C)n2CCN1CCOCC1` [Example 107, 4,6-dihydroxy-2-{[5-methoxy-2-methyl-1-(2-morpholin-4-ylethyl)-1H-indol-3-yl]methylene}-1-benzofuran-3(2H)-one], the IC50 is 11.3 nM in assay [1] (PI3Kα Avg. IC50); 112 nM in assay [2]; 154 nM in assay [3]; 5.8 nM in assay [4] (read-out: PI3Kδ Avg. IC50); less than 25 nM in assay [5].

In the case of `COc1ccc2c(c1)c(/C=C1\Oc3cc(O)cc(O)c3C1=O)c(C(F)(F)F)n2CC(=O)N(C)C` [Example 333, 2-{3-[(Z)-(4,6-Dihydroxy-3-oxo-1-benzofuran-2(3H)-ylidene)methyl]-5-methoxy-2-(trifluoromethyl)-1H-indol-1-yl}-N,N-dimethylacetamide], the IC50 in assay [1] (read-out: PI3Kα Avg. IC50) stood at 66 nM; in assay [2], 203 nM; in assay [3] it was 159 nM; in assay [4] (read-out: PI3Kδ Avg. IC50) it was 51 nM; in assay [5] it was 53 nM.

Turning to `COc1ccc2[nH]c(C)c(C=C3Oc4cccc(O)c4C3=O)c2c1` [Example 86, 4-hydroxy-2-[(5-methoxy-2-methyl-1H-indol-3-yl)methylene]-1-benzofuran-3(2H)-one], the IC50 amounted to 184 nM in assay [1] (read-out: PI3Kα Avg. IC50); 98 nM in assay [2]; 355 nM in assay [3]; 47 nM in assay [4] (read-out: PI3Kδ Avg. IC50); 84.8 nM in assay [5].

Consider `COc1ccc2c(c1)c(/C=C1\Oc3cc(O)ccc3C1=O)c(C)n2CCCN1CCCC1` [Example 356, (2Z)-6-Hydroxy-2-{[5-methoxy-2-methyl-1-(3-pyrrolidin-1-ylpropyl)-1H-indol-3-yl]methylene}-1-benzofuran-3(2H)-one], for which the IC50 was 15.5 nM in assay [1] (read-out: PI3Kα Avg. IC50); 116 nM in assay [2]; 408 nM in assay [3]; 1.2 nM in assay [4] (read-out: PI3Kδ Avg. IC50); more than 800 nM in assay [5].

For `COc1ccc2c(c1)c(/C=C1\Oc3cc(O)ccc3C1=O)c(C)n2CCCN(C)C` [Example 307, (2Z)-2-({1-[3-(Dimethylamino)propyl]-5-methoxy-2-methyl-1H-indol-3-yl}methylene)-6-hydroxy-1-benzofuran-3(2H)-one], the 50% inhibitory concentration (IC50) in assay [1] (read-out: PI3Kα Avg. IC50) is 18.5 nM; in assay [2], 72.5 nM; in assay [3], 1820 nM; in assay [4] (read-out: PI3Kδ Avg. IC50), 2.5 nM; in assay [5], 3700 nM.

Take `COc1ccc2[nH]c(CN3CCN(C)CC3)c(/C=C3\Oc4cc(O)cc(O)c4C3=O)c2c1` [Example 346, (2Z)-4,6-Dihydroxy-2-({5-methoxy-2-[(4-methylpiperazin-1-yl)methyl]-1H-indol-3-yl}methylene)-1-benzofuran-3(2H)-one]: the IC50 turned out to be 6.1 nM in assay [1] (read-out: PI3Kα Avg. IC50); 7.7 nM in assay [2]; 55 nM in assay [3]; 3 nM in assay [4] (read-out: PI3Kδ Avg. IC50); 77 nM in assay [5].

Regarding `COc1ccc2[nH]c(-c3c(C)noc3C)c(/C=C3\Oc4cc(O)cc(O)c4C3=O)c2c1` [Example 360, (2Z)-2-{[2-(3,5-Dimethylisoxazol-4-yl)-5-methoxy-1H-indol-3-yl]methylene}-4,6-dihydroxy-1-benzofuran-3(2H)-one], the IC50 in assay [1] (read-out: PI3Kα Avg. IC50) amounted to 1.5 nM; in assay [2] it was 1.3 nM; in assay [3], 3.2 nM; in assay [4] (read-out: PI3Kδ Avg. IC50) it was 0.3 nM; in assay [5] it was 1.25 nM.

As for `COc1ccc2c(c1)c(/C=C1\Oc3cc(O)ccc3C1=O)c(C1CC1)n2CCN1CCN(C)CC1` [Example 362, (2Z)-2-({2-Cyclopropyl-5-methoxy-1-[2-(4-methylpiperazin-1-yl)ethyl]-1H-indol-3-yl}methylene)-6-hydroxy-1-benzofuran-3(2H)-one], the concentration for half-maximal inhibition (IC50) in assay [1] (read-out: PI3Kα Avg. IC50) worked out at 10.5 nM; in assay [2], 8 nM; in assay [3], 329 nM; in assay [4] (read-out: PI3Kδ Avg. IC50), 1.5 nM; in assay [5], 210 nM.

As to `COc1ccc2c(c1)c(C=C1Oc3cc(O)cc(O)c3C1=O)c(C)n2CCCN1CCN(CCO)CC1` [Example 103, 4,6-dihydroxy-2-[(1-{3-[4-(2-hydroxyethyl)piperazin-1-yl]propyl}-5-methoxy-2-methyl-1H-indol-3-yl)methylene]-1-benzofuran-3(2H)-one], the IC50 is 6.6 nM in assay [1] (read-out: PI3Kα Avg. IC50); 22 nM in assay [2]; 108 nM in assay [3]; 2 nM in assay [4] (read-out: PI3Kδ Avg. IC50); 108 nM in assay [5].

Regarding `COc1ccc2c(c1)c(/C=C1\Oc3cc(O)c(F)cc3C1=O)c(C)n2CCN1CCN(C)CC1` [Example 351, (2Z)-5-Fluoro-6-hydroxy-2-({5-methoxy-2-methyl-1-[2-(4-methylpiperazin-1-yl)ethyl]-1H-indol-3-yl}methylene)-1-benzofuran-3(2H)-one], the IC50 in assay [1] (read-out: PI3Kα Avg. IC50) is 66 nM; in assay [2], 505 nM; in assay [3], 3270 nM; in assay [4] (read-out: PI3Kδ Avg. IC50), 9 nM; in assay [5], more than 800 nM.

`COc1ccc2[nH]c(CN(C)C)c(/C=C3\Oc4cc(O)cc(O)c4C3=O)c2c1` [Example 353, (2Z)-2-({2-[(Dimethylamino)methyl]-5-methoxy-1H-indol-3-yl}methylene)-4,6-dihydroxy-1-benzofuran-3(2H)-one]: the IC50 stood at 4 nM in assay [1] (read-out: PI3Kα Avg. IC50); 8 nM in assay [2]; 38 nM in assay [3]; 2 nM in assay [4] (read-out: PI3Kδ Avg. IC50); 22 nM in assay [5].

For `COc1ccc2c(c1)c(C=C1Oc3cc(O)cc(O)c3C1=O)c(C)n2CCCCN1CCN(CCO)CC1` [Example 98, 4,6-dihydroxy-2-[(1-{4-[4-(2-hydroxyethyl)piperazin-1-yl]butyl}-5-methoxy-2-methyl-1H-indol-3-yl)methylene]-1-benzofuran-3(2H)-one], the IC50 was found to be 9.4 nM in assay [1] (read-out: PI3Kα Avg. IC50); 10.5 nM in assay [2]; 248 nM in assay [3]; 1 nM in assay [4] (read-out: PI3Kδ Avg. IC50); 58.5 nM in assay [5].

Consider `COc1ccc2c(c1)c(/C=C1\Oc3cc(O)cc(O)c3C1=O)cn2CCN1CCC(O)CC1` [Example 319, (2Z)-4,6-Dihydroxy-2-({1-[2-(4-hydroxypiperidin-1-yl)ethyl]-5-methoxy-1H-indol-3-yl}methylene)-1-benzofuran-3(2H)-one], for which the IC50 in assay [1] (read-out: PI3Kα Avg. IC50) was found to be 38.3 nM; in assay [2], 108 nM; in assay [3] it was 117 nM; in assay [4] (read-out: PI3Kδ Avg. IC50) it was 3.5 nM; in assay [5] it was 265 nM.

`COc1ccc2c(c1)c(/C=C1\Oc3cc(O)cc(O)c3C1=O)c(-c1cnn(C)c1)n2CC(=O)N(C)C` [Example 329, 2-{3-[(Z)-(4,6-Dihydroxy-3-oxo-1-benzofuran-2(3H)-ylidene)methyl]-5-methoxy-2-(1-methyl-1H-pyrazol-4-yl)-1H-indol-1-yl}-N,N-dimethylacetamide]: the 50% inhibitory concentration (IC50) in assay [1] (read-out: PI3Kα Avg. IC50) amounted to 12.5 nM; in assay [2], 51.6 nM; in assay [3], 130 nM; in assay [4] (read-out: PI3Kδ Avg. IC50), 18.5 nM; in assay [5] it was 39 nM.

In the case of `COc1ccc2c(c1)c(/C=C1\Oc3cc(O)cc(O)c3C1=O)c(-c1cnn(C)c1)n2CCN1CCN(C)CC1` [Example 341, (2Z)-4,6-Dihydroxy-2-({5-methoxy-1-[2-(4-methylpiperazin-1-yl)ethyl]-2-(1-methyl-1H-pyrazol-4-yl)-1H-indol-3-yl}methylene)-1-benzofuran-3(2H)-one], the concentration for half-maximal inhibition (IC50) in assay [1] (read-out: PI3Kα Avg. IC50) is 1.7 nM; in assay [2], 7.1 nM; in assay [3], 22.8 nM; in assay [4] (read-out: PI3Kδ Avg. IC50), 0.8 nM; in assay [5] it was 10.8 nM.
